From ChEMBL document CHEMBL1126844, “Hydroxylated 2-(5'-salicyl)naphthalenes as protein-tyrosine kinase inhibitors” (J Med Chem, 1993) come the findings set out here.

The target in this test is Tyrosine-protein kinase Lck (Homo sapiens, UniProt P06239). Kind of test: Inhibition of protein-tyrosine kinase p56lck.
Tyrosine-protein kinase Lck, sequence (P06239 whole entry): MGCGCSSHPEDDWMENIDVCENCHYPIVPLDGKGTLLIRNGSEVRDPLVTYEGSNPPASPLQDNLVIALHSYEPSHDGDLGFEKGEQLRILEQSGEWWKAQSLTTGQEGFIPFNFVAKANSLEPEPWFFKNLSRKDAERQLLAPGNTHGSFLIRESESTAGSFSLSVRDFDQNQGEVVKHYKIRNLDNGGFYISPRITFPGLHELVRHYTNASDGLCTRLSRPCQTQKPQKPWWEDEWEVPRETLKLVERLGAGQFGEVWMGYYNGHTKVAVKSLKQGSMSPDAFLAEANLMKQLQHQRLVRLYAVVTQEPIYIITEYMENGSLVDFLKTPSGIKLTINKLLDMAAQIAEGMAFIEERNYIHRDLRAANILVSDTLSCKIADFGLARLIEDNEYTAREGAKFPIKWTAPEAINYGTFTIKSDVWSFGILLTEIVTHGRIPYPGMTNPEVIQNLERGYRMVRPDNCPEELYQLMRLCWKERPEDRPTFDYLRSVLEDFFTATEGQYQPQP

As for `O=C(O)c1cc(-c2ccc3c(O)ccc(O)c3c2)ccc1O`, the concentration for half-maximal inhibition (IC50) (in general, the midpoint of a concentration-inhibition curve) is 65 µM. With `O=C(O)c1cc(-c2ccc3ccccc3c2)ccc1O`, the 50% inhibitory concentration (IC50) is greater than 200 µM. In turn, `O=C(O)c1cc(-c2ccc3cc(O)c(O)cc3c2)ccc1O` yielded an IC50 of 150 µM. The compound `O=C(O)c1cc(-c2ccc3c(O)c(O)ccc3c2)ccc1O` registered a 50% inhibitory concentration (IC50) of 42 µM.
